Test results as given in patent US20120315290A1, “INHIBITORS OF LL-37 MEDIATED IMMUNE REACTIVITY TO SELF NUCLEIC ACIDS” (BOARD OF REGENTS, THE UNIVERSITY OF TEXAS SYSTEM, priority 2006, published 2012).

Key:
[1] = system: plasmacytoid dendritic cells (pDC); assay: IFN-α and cytokine production by purified human pDC (ELISA of supernatants); assay type: cell-based
U937 = assay: Binding and protection of DNA released by dying tumor cells (electrophoresis of supernatants); assay type: cell-based, human; conditions: irradiated tumor cells, 24 h culture
Protocol: (a) U937 were UV-irradiated to induce apoptosis and cultured for 24 h, or rendered necrotic by repeated freeze/thaw cycles and stained with Annexin V and PI to visualize apoptosis and necrosis. (b) 5×10^6 live U937 cells (lines 1+2), or apoptotic UV-irradiated U937 (lines 3+4) were cultured for 24 h either alone or in the presence of LL-37 ([…]) before cell free supernatant was collected. U397 were also lyzed by freeze-thaw cycles to induce primary necrosis and cultured for 1 h either alone or in the presence of LL-37 ([…]) before cell free supernatant was collected. 20 ul of the supernatants in buffer were loaded onto 1% agarose gel and the electrophoresis was ran for 1.5 hrs at 100V. The image was acquired with a Biorad gel imaging system.
LL-37 combined with dying tumor cells can bind tumor-derived self-DNA in-vitro. To test the ability of LL-37 to bind and protect self-DNA released by dying tumor cells, we generated apoptotic and necrotic tumor cells in the presence or absence of LL-37, and measured DNA contents in culture supernatants by electrophoresis. Primary necrosis induced by consecutive freeze and thaw cycles, and apoptosis with secondary necrosis induced by γ-irradiation at 20,000 rad followed by a 24 h culture (at 5×10^6 cells in 500 μl) were confirmed by Annexin plus PI staining (FIG. 26a).

[2] = system: myeloid (monocyte-derived) DC; assay: Myeloid DC maturation (CD80) and cytokine secretion; assay type: cell-based, human; conditions: RNA 10 μg ml^−1 premixed with LL-37 (10 μM), overnight culture
Protocol: (§1) Myeloid (monocyte-derived) DC were stimulated with RNA isolated from U937 cells (human RNA) or a synthetic single-stranded RNA sequence derived from HIV (ssRNA40) and a known TL-7/8 ligand either alone (10 pg ml^−1) or after premixing with LL-37 (10 μM). (a) Maturation was assessed by flow cytometry analysis of CD80 after overnight culture.
as §1, with “In a second set of experiments, myeloid” for “Myeloid”, “TLR-7/8” for “TL-7/8”, “μg” for “pg”, “μM).” for “μM). (a)”, “culture (FIG. 21A). Levels of TNF-α, IL-6, EL-12, and IL-23 were measured after overnight culture (FIG. 21B).” for “culture.”

[3] = system: Thy1.2 positive CD4 T cells; assay: Adjuvant activity: expansion of transferred HNT-TCR Tg CD4+ T cells in draining LN; assay type: in vivo, BALB/c Thy1.1 mice; conditions: 35 μg s.c. with A20 lysate plus HNT peptide
Protocol: CD4+ T cells were purified from spleen and LN of HNT-TCR Tg mice (Thy 1.2), labeled with CFSE, and adoptively transferred (1×10^6) into BALB/c Thy1.1 mice. Next day, mice were immunized s.c. with (a) 5×10 ^6 A20 lysate plus HNT peptide and CpG-2216 ([…]); (b) A20 lysate plus HNT peptide and LL-37 ([…]); (c) A20F lysate plus HNT peptide; or (d) left untreated. Four days after immunization draining LN were harvested and Thy 1.2 positive CD4 T cells were measured by flow cytometry.
In another set of experiments, CD4+ T cells were purified from spleen and LN of HNT-TCR Tg mice (Thy 1.2), labeled with CFSE, and adoptively transferred (1×10^6) into BALB/c Thy1.1 mice. Next day, mice were immunized subcutaneously with 5×10^6 A20 lysate plus HNT peptide and CpG-2216 (35 μg), A20 lysate plus HNT peptide and LL-37 (35 μg), A20F lysate plus HNT peptide, or left untreated. Four days after immunization draining LN were harvested and Thy1.2 positive CD4 T cells were measured by flow cytometry.

human genomic DNA = assay: Complex formation with DNA (ethidium bromide intercalation, size exclusion HPLC); assay type: binding
From the text: (A) Emission spectra of human genomic DNA intercalated with Ethimidium bromide in the presence of increasing doses of LL-37. (B) Size exclusion HPLC of LL-37 alone, mut-LL-37 alone or DNA premixed with LL-37 or mut-37. […] Absorbance scales are different to accommodate the DNA peak.

B16 tumor = assay: Intratumoral injection into established B16 melanoma, tumor size; assay type: in vivo, C57BL/6 mice
Protocol: Mice bearing a 7-d subcutaneous B16 melanoma were injected with […] of LL-37 once (single), or repeatedly for 3 days (3×). Control injections were done with PBS. Tumor size was monitored by caliper every second day. Data represent mean of 4 mice per group.
Intratumoral injection of LL-37 elicits potent anti-tumor activity. 3×10^5 B16 tumor cells were inoculated into shaved flanks of C57BL/6 mice. Tumors were allowed to grow for 7 days. On day 7, tumors were either injected with a single dose of LL-37 (100 μg), injected daily for 3 consecutive days with LL-37 or injected with saline as a control. Tumor size was monitored with a caliper and volumes estimated using the formula π/6×length×width^2. The experiment was stopped 12 days after injection because all mice in the control group had died or their tumor had reached 20 mm in their maximal diameter. […] Thus, intratumoral LL-37 injection induces potent anti-tumor activity.

## LLGDFFRKSKEKIGKEFKRIVQRIKDFLRNLVPRTES [LL-37]
[1]
  Clump formation of pDC: induced pDC to form clumps
[1]; not shown
  Maturation of pDC: did not induce maturation of pDC
U937
  DNA detected in culture supernatants of dying tumor cells: exclusively detected DNA in supernatants of irradiated tumor cells cultured with LL-37
[2]
  Myeloid DC maturation and cytokine secretion: converts self-RNA and viral RNA into activator of myeloid DC maturation and cytokine secretion
[3]
  Induction of T cell mediated immunity (adjuvant activity): potent adjuvant activity
Human genomic DNA
  Complex formation with DNA: complexed with DNA
B16 tumor; 100 μg on day 7
  Growth of established B16 tumor, single intratumoral injection: significantly delayed the growth of established B16 tumor
B16 tumor; three consecutive days
  Anti-tumor response, repeated intratumoral injection: showed a trend towards a better anti-tumor response
